In data set [1] the test system is white hMADS cells. The data set is described as follows: Lipolysis assay. It counts as cell-based, human. To be noted: for FFA release after pretreatment with adenylyl cyclase inhibitor SQ22536: white hMADS.
The conditions of data set [2]: healthy individuals, degradation by dipeptidyl peptidase 4; cited from earlier work.
Data set [3] addresses human insulin receptor/ CD220 (28-944) protein (Homo sapiens, UniProt P06213). As to the kind of experiment: Surface plasmon resonance, immobilised biotinylated peptide, INSR injected. It counts as binding. To be noted: biotinylated peptide on Sensor Chip SA.
For data set [4], the system named is hMADS cells. As to the kind of experiment: mRNA expression by RT-qPCR in hMADS. It counts as cell-based, human. The note with it: in the presence of 10 nM insulin, 24 h.
Data set [5] addresses T1, GIPR (Homo sapiens, UniProt P48546).
T1 sequence (P48546 22-466): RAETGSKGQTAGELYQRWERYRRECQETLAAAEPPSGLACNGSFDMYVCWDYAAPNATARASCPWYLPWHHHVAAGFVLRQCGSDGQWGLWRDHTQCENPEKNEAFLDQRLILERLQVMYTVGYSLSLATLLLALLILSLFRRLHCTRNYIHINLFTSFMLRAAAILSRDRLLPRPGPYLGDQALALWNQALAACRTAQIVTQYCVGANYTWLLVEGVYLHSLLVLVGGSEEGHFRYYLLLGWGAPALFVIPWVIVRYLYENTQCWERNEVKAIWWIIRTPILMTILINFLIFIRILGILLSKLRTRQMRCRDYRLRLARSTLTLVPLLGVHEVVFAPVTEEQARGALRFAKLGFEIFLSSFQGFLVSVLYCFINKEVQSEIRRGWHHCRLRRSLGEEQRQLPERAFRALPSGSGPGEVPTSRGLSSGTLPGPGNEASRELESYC
The data set is described as follows: Schild analysis of FFA release in hMADS with GIPR antagonist. It counts as cell-based.

Sequence of human insulin receptor/ CD220 (28-944) protein (P06213 28-944 isoform P06213-2): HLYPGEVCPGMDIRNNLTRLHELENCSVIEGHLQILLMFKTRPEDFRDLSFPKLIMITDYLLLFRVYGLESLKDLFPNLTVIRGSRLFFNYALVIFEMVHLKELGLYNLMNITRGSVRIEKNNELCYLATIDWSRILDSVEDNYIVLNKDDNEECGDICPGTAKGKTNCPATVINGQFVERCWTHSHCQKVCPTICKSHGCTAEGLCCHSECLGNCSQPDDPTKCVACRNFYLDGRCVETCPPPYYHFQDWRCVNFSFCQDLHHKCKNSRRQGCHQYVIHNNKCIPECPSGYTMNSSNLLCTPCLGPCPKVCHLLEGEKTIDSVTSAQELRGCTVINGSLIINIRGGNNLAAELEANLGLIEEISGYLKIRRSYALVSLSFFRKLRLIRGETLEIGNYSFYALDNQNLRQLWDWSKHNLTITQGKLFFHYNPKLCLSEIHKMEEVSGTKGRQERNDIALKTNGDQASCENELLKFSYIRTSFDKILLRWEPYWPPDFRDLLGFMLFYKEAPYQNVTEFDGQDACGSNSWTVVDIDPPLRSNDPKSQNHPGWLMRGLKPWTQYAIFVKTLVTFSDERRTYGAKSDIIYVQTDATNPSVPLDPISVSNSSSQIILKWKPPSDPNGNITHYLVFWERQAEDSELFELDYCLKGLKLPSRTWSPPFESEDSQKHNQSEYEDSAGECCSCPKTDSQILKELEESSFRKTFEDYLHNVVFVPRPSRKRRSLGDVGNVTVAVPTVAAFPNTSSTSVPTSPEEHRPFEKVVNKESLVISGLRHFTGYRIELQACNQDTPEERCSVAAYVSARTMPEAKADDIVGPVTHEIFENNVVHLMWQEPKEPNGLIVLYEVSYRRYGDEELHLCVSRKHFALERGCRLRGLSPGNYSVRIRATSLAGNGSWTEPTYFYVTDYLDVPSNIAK

Consider `CC[C@H](C)[C@H](NC(=O)[C@H](CO)NC(=O)[C@H](Cc1ccc(O)cc1)NC(=O)[C@H](CC(=O)O)NC(=O)[C@H](CO)NC(=O)[C@@H](NC(=O)[C@H](Cc1ccccc1)NC(=O)[C@@H](NC(=O)CNC(=O)[C@H](CCC(=O)O)NC(=O)[C@H](C)NC(=O)[C@@H](N)Cc1ccc(O)cc1)[C@@H](C)O)[C@@H](C)CC)C(=O)N[C@@H](C)C(=O)N[C@@H](CCSC)C(=O)N[C@@H](CC(=O)O)C(=O)N[C@@H](CCCCN)C(=O)N[C@H](C(=O)N[C@@H](Cc1c[nH]cn1)C(=O)N[C@@H](CCC(N)=O)C(=O)N[C@@H](CCC(N)=O)C(=O)N[C@@H](CC(=O)O)C(=O)N[C@@H](Cc1ccccc1)C(=O)N[C@H](C(=O)N[C@@H](CC(N)=O)C(=O)N[C@@H](Cc1c[nH]c2ccccc12)C(=O)N[C@@H](CC(C)C)C(=O)N[C@@H](CC(C)C)C(=O)N[C@@H](C)C(=O)N[C@@H](CCC(N)=O)C(=O)N[C@@H](CCCCN)C(=O)NCC(=O)N[C@@H](CCCCN)C(=O)N[C@@H](CCCCN)C(=O)N[C@@H](CC(N)=O)C(=O)N[C@@H](CC(=O)O)C(=O)N[C@@H](Cc1c[nH]c2ccccc12)C(=O)N[C@@H](CCCCN)C(=O)N[C@@H](Cc1c[nH]cn1)C(=O)N[C@@H](CC(N)=O)C(=O)N[C@H](C(=O)N[C@H](C(=O)N[C@@H](CCC(N)=O)C(=O)O)[C@@H](C)O)[C@@H](C)CC)C(C)C)[C@@H](C)CC` [hGIP], for which the “FFA release in hMADS treated with GIPR siRNA vs siNC” value in data set [1] (GIPR knockdown approximately 40%) is given as “significantly reduced”. Also, the half-maximal effective concentration (EC50) in data set [1] (read-out: EC50, FFA release read-out, hMADS cells) worked out at 1.1 nM. The half-life entry in data set [2] is listed as “approximately 7 minutes”.
Take Ac-PKMVPQFNTELKIFPEVNIK-NH2 [SP34]: the “binding of insulin receptor to immobilised peptide” value in data set [3] is listed as “does not exhibit binding”.
Consider `COc1cc([C@@H]2c3cc4c(cc3[C@H](O)[C@H]3COC(=O)[C@@H]23)OCO4)cc(OC)c1OC` [PPP, Picropodophyllin], for which the “expression of FASN” value in data set [4] is listed as “significantly lower”.
brain natriuretic peptide [BNP]: the “FFA release after pretreatment with adenylyl cyclase inhibitor SQ22536” value in data set [1] is “remains unaffected”.
Regarding `CCCCCCCCCCCCCCCC(=O)N[C@@H](CCC(=O)NCCCC[C@H](NC(=O)[C@H](Cc1ccc(O)cc1)NC(=O)[C@H](CC(=O)O)NC(=O)[C@H](CO)NC(=O)[C@@H](NC(=O)[C@H](Cc1ccccc1)NC(=O)[C@@H](NC(C)=O)[C@@H](C)O)[C@@H](C)CC)C(=O)N[C@H](C(=O)N[C@@H](C)C(=O)N[C@@H](CC(C)C)C(=O)N[C@@H](CC(=O)O)C(=O)N[C@@H](CCCCN)C(=O)N[C@H](C(=O)N[C@@H](CCCNC(=N)N)C(=O)N[C@@H](CCC(N)=O)C(=O)N[C@@H](CCC(N)=O)C(=O)N[C@@H](CCC(=O)O)C(=O)N[C@@H](Cc1ccccc1)C(=O)N[C@H](C(=O)N[C@@H](CC(N)=O)C(=O)N[C@@H](Cc1c[nH]c2ccccc12)C(=O)N[C@@H](CC(C)C)C(=O)N[C@@H](CC(C)C)C(=O)N[C@@H](C)C(=O)N[C@@H](CCC(N)=O)C(=O)N[C@@H](CCCCN)C(=O)NCC(N)=O)C(C)C)[C@@H](C)CC)[C@@H](C)CC)C(=O)O` [GIPR antagonist], the “effect on lipolysis induced by 1 µM isoprenaline” value in data set [5] is “remains unchanged”.
On to `CC(C)NCC(O)c1ccc(O)c(O)c1` (centres unmarked) [isoprenaline], for which the “FFA release after pretreatment with adenylyl cyclase inhibitor SQ22536” value in data set [1] is given as “inhibited”.

These data come from publication doi:10.1101/2025.06.17.660082v1 (bioRxiv, 2025).
